Values quoted from earlier work, collected in patent US12168054B2 (SYNDAX PHARMACEUTICALS, INC., priority 2017, dated 2024).

Experiments:
histone acetylation = conditions: following the administration of entinostat
[1] = in vivo

half-life [1]: about 100 hours
Compound: Nc1ccccc1NC(=O)c1ccc(CNC(=O)OCc2cccnc2)cc1 [Entinostat, N-(2-aminophenyl)-4-[N-(pyridine-3-yl)methoxycarbonylamino-methyl]-benzamide]
persistence of changes in histone acetylation following administration (histone acetylation): persist for several weeks
